We go through one compound from patent publication US12161632B2, “Compositions and methods of treating cardiac fibrosis with ifetroban” (Cumberland Pharmaceuticals Inc., priority 2014, dated 2024).

“Also recorded” adds a separate entry of the source.

The subject of assay [1] is right ventricle under load stress (pulmonary banding). Briefly: Pulmonary banding load stress model: hemodynamics, heart fibrosis and macrophage infiltration (Example IV). In kind it is in vivo. The following applies: banded mice, 25 mg/kg/day in drinking water, 2 weeks. How it is done:
FVB/N mice or mice with a GFP macrophage-specific lineage tracing marker (LysM-Cre) underwent pulmonary banding to directly increase load stress (or sham surgery for controls), and starting the following day received either vehicle or the thromboxane receptor antagonist Ifetroban sodium in their drinking water (25 mg/kg/day). After 2 weeks, noninvasive hemodynamics were obtained by transthoracic echocardiography and invasive hemodynamics were obtained by pressure-volume catheterization of the right heart prior to sacrifice. Hearts were assessed for fibrosis and macrophage infiltration. RNA from right ventricles were isolated and used for unbiased discovery of altered gene expression using Affymetrix Mouse Gene 2.0 arrays performed on four groups (banded or sham). LysM-Cre mouse hearts were flash-frozen whole, cross-sectioned, and assessed by microscopy for fibrosis and macrophage infiltration. Differences between groups were assessed by ANOVA and t-tests. Correlations were assessed by Spearman correlation.

Assay [2] deals with pulmonary artery banded wild-type mice. Briefly: Pulmonary artery banding, two or six weeks of treatment: histology and echocardiography (Example VI). The class given is in vivo. The following applies: PAB mice, 30 mg/kg/day, 6 weeks. As for the experimental part:
Wild-type mice underwent pulmonary artery banding followed by two weeks or six weeks of treatment with ifetroban (30 mg/kg/day via the drinking water) vs. control (plain drinking water). The pulmonary artery band mimics pulmonary hypertension and right heart failure.

Assay [3] deals with pulmonary artery banding (PAB) mouse model of pulmonary hypertension. Briefly: Pulmonary artery banding (PAB) model: cardiovascular phenotyping and histology (Example V). The following applies: 14 days. In kind it is in vivo, mice. As for the experimental part: Experimental Methods: In this pulmonary artery banding (PAB) animal model, we used wildtype or Rosa26-rtTA2 mice on a normal diet. Mice were anesthetized and subject to either PAB (20 mice) or sham surgery (10 mice) at 4-6 months of age. Following the procedure, the mice were given either ifetroban water at 30 mg/kg/day or normal drinking water, and after 14 days of treatment we performed cardiovascular phenotyping followed by terminal sacrifice, histology and gene expression arrays.
Echocardiograms to assess cardiac output were obtained the day prior to catheterization and sacrifice. Our standard cardiovascular phenotyping continued with systemic pressure measurement by tail vein cuff, and intrajugular heart catheterization with measurement of right ventricular systolic pressure (RVSP) for peak pressure, diastolic pressure, diastolic time constant, arterial elastance, ejection fraction, and stroke volume.
Following sacrifice, right ventricular hypertrophy was assessed in each animal as a percentage of heart weight. A random fraction of the right hearts were fixed in formalin for histology and examined for indices of fibrosis; other hearts were snap frozen for gene expression analysis via RNA microarray. Right hearts and lungs were collected for analysis of protein expression and gene expression array. Left lungs were fixed and stained. Platelet deposition was examined in small pulmonary artery vessels. The remaining organs were harvested and frozen in liquid nitrogen for potential gene expression analysis.

For assay [4], the system named is cultured cardiomyocytes given exogenous TGF-ß. Briefly: TGF-ß signalling in cultured cardiomyocytes (PAI-1 expression, promoter luciferase). The class given is cell-based. The following applies: compared to vehicle-treated cells.
Assay [5] concerns RV monocytes / macrophages. Briefly: Cardiac monocytes: LysM-Cre lineage tracing and flow cytometry of RV (Example VII). The class given is in vivo, mice. How it is done: Both male and female age-matched C57Bl/6 or FVB/NJ mice, obtained by in-house breeding, were used for pulmonary artery banding. LysM-GFP mice were obtained by cross-breeding LysM-Cre×mTomato/GFP reporter mice B6.129P2-Lyz2tm1(cre)Ifo/J (a gift from Tim Blackwell)×Gt(ROSA)26Sortm4(ACTB-tdTomato, -EGFP)Luo (JAX stock #007676). The day following surgery, mice were given either 25 mg/kg/day IFETROBAN (Cumberland Pharmaceuticals Inc., Nashville, TN) in drinking water or normal drinking water (vehicle) for 2 weeks or 6 weeks prior to hemodynamic evaluation. Mice were weighed and water was changed once a week.
TP receptors are also expressed on monocytes, and blockade of these receptors may have immune-specific effects. To determine whether the decrease in fibrosis seen with TP receptor inhibition was due to decreased macrophage infiltration or proliferation in the RV, PAB on LysM-Cre mice expressing eGFP under the LysozymeM promoter was performed, where all cells that have ever had monocyte lineage are labeled with GFP, even if they have later differentiated. […] Transgenic LysM-Cre×flox-mTomato-flox eGFP mice were used to label cells of monocyte derivation in the RV. These mice express a fluorescent red, except in cells derived from monocyte lineage (even if they have later differentiated), which express a fluorescent green. […] Flow sorting of whole RV for circulating markers found a non-significant trend towards an increase in PA-banded mice that was blocked by ifetroban.
In general terms: A flow cytometer gives signals particle by particle.

Assay [6] concerns pulmonary artery banding (PAB) model of right ventricular pressure overload. Briefly: PAB model of right ventricular pressure overload: hemodynamics, echocardiography, histology (Example VII). The following applies: PAB mice, low dose 3 mg/kg/day via drinking water, 2 weeks. In kind it is in vivo.
The subject of assay [7] is α and ß isoforms of the TP receptor. The following applies: cited from earlier work.

For the compound `CCCCCNC(=O)c1coc([C@H]2[C@@H](Cc3ccccc3CCC(=O)O)[C@@H]3CC[C@H]2O3)n1` [ifetroban, [1S-(1α,2α,3α,4α)]-2-[[3-[4-[(Pentylamino)carbonyl]-2-oxazolyl]-7-oxabicyclo[2.2.1]hept-2-yl]methyl]-benzenepropanoic acid], in assay [1], the “fibrosis (heart)” value is reported as “reduction in fibrosis”, the “hemodynamic markers of right heart function under load stress” value is listed as “preserved right heart function under load stress” and the “recruitment of inflammatory cells” value was “reduction in recruitment of inflammatory cells”. Further, in assay [2], the “cardiomyocyte diameter in the right ventricle” value is “protected against increases in cardiomyocyte diameter”; the “echocardiography, left ventricular cardiac function (end diastolic/systolic volume, stroke volume, ejection fraction, fractional shortening)” value was “cardiac function values similar to the animals that underwent sham surgery; also recorded: echo values similar to sham surgery animals”; the right ventricular fibrosis entry is recorded as “reduced right ventricular fibrosis”. In addition, in assay [3] (30 mg/kg/day), the “fibrosis in banded right ventricles” value is on record as “decreases fibrosis in banded right ventricles”. For the same compound, the “right ventricular systolic pressure (RVSP)” value in assay [3] (PAB mice, 30 mg/kg/day in water) is “did not have an effect”. Also, the “ratio of tricuspid E to A wave” value in assay [3] (banded mice, 30 mg/kg/day, p<0.05 unpaired t test) was “significantly increased”. Moreover, the “fibrosis in cross-section of the right ventricle (trichrome-stained, 20×)” value in assay [3] (sham surgery and banded, 30 mg/kg/day) was “reduced fibrosis in the right ventricle for both the sham surgery and the banded right ventricle”. Moreover, the “PAI-1 expression or promoter activity” value in assay [4] is on record as “no change”. Besides, the “PAB-induced increase in green (monocyte lineage) cells in RV” value in assay [5] (LysM-Cre reporter mice, ifetroban) is “not in ifetroban-treated mice”. Further, in assay [5] (wildtype mice, PAB), the “flow sorting of whole RV for circulating markers: non-significant trend towards an increase in PA-banded mice” value is recorded as “blocked”. Further, in assay [6], the “fibrosis of the right ventricle (histology)” value was “does not prevent fibrosis”. Further, in assay [7], the “blockade of TPα and TPβ receptor isoforms” value is on record as “effectively blocked”.
